# Values quoted from earlier work in patent publication US20100160366A1, “TREATMENT METHOD” (Schering Corporation, priority 2000, published 2010).
# What was measured:
# [1] = tested on: eosinophils
# [2] = tested on: monocytes
# [3] = tested on: allergic immune cells; settings: allergic immune cells in vitro
# [4] = tested on: IL-6
# [5] = tested on: ICAM-1
structure (smiles),measurement,setting,value
CCOC(=O)N1CCC(=C2c3ccc(Cl)cc3CCc3cccnc32)CC1 [loratadine],activity of eosinophils,[1],inhibited
same,chemotaxis of eosinophils,[1],inhibited
same,activation of monocytes as measured by superoxide anion production,[2],reduced
same,release of mast cell histamine,[3],inhibit
same,release of the cysteinyl leukotriene LTC4,[3],inhibit
same,inflammatory cytokine IL-6,[4],inhibited
same,adhesion molecule ICAM-1 expression,[5],reduced
